Measurements taken from US10363248B2, “Salts of heterocyclic modulators of HIF activity for treatment of disease” (priority 2014, dated 2019).
“And” between values parts separate entries of the source, which are not always exact repeats. Identical values can stand only once. “Also recorded” adds a separate entry of the source. Counter-ions that a name gives are not always drawn. Like-named read-outs stand apart in the source and are kept apart here.

Tests used:
[1] = Plasma concentration-time data and PK parameters after a PO dose of 10 mg/kg in female CD1 nude mice (Groups 1-5)
Experimental: (§1) Pharmacokinetic studies were performed in female CD-1 nude mice. —Either 10 or 50 mg/kg of each test article was administered PO, QD in 0.5% methylcellulose aqueous solution or suspension. […] Plasma concentrations were analyzed using a LC/MS method and the pharmacokinetic parameters computed using a noncompartmental method.

[2] = Plasma concentration in female CD-1 nude mice, formulation groups A-C; assay type: in vivo; settings: for concentration at 24 h: group mean; for concentration at 6 h: time point 6 h; for concentration at 6 h / concentration at 8 h: individual mouse; for concentration at 8 h: time point 8 h
Experimental: as §1

Gli56 cells = assay: Glioblastoma cellular assay Gli56; assay type: cell-based; settings: various concentrations
Text: (§2) NB-1, Gli56, and D423 cell lines are deleted for ENO-1 (GLI56 and D423) or PGD, which renders them with reduced glycolytic capacity (Muller, F. et al., Nature, 2012, 488, 337-42).

OCI-AML3 cells = assay: OCI-AML3 human leukemia model in NSG mice; assay type: in vivo, NSG nude mice; settings: daily oral 10 mg/kg
Experimental: (§3) The OCI-AML3 cell line was treated with various concentrations of compound for 2 days and the percent of viable cells normalized to control cells treated with DMSO (FIG. 6). OCI-AML3 cells constitutively expressing luciferase were tail vein injected in NSG nude mice. 17 days after cell injection, luciferin was injected into animals and luciferase signal was measured using an IVIS imaging system to determine tumor burden and for randomization of subjects into study groups. On day 18, animals began receiving daily oral doses of vehicle or 10 mpk of the compound of Example 80 which continued throughout the study. On day 28, imaging was performed again to determine tumor burden (FIG. 7).

TMD8 cells = assay: Diffuse large B-cell lymphoma (DLBCL) assay, viable cells; assay type: cell-based; settings: varying concentrations, 7 days; Guava ViaCount; FIG. 1
Experimental: Equal number of TMD8 cells were plated and treated with varying concentrations of the compound of Example 80 for 7 days. Percent of viable cells was determined using Guava ViaCount reagents (EMD Millipore cat #4000-0040) that contains proprietary dyes that enable the determination of the number of live and dead cells in a sample (FIG. 1).

293T-HRE-GFP-luc cells = assay: Cell-based reporter assay for IC50 determinations; settings: hypoxia for 6 hrs. (1% O2); luminescence; read-out: IC50 Classification
Experimental: IC50 values were calculated using a four-parameter logistic curve fit.

NB-1 xenografts = assay: NB-1 xenograft model; assay type: in vivo, CD-1 nude mice; settings: daily oral treatment with 10 mg/kg; FIG. 5
D423 cells = assay: Glioblastoma cellular assay D423; assay type: cell-based; settings: various concentrations; FIG. 4
Text: as §2

OCI-AML3 cell line = assay: Acute myeloid leukemia cell viability; assay type: cell-based; settings: various concentrations, 2 days; normalized to DMSO; FIG. 6
Experimental: as §3

[3] = Dynamic vapor sorption (DVS); assay type: physicochemical; settings: for DVS Sorption (%): weight gain from 0 to 80% RH, 25° C; for form transformation after DVS test: XRPD after DVS; for hygroscopicity classification: according to DVS result
Experimental: Transfer about 10 mg of sample into a DVS (DVS Advantage-1, SMS) and record the weight change with respect to the atmospheric humidity at 25° C. Use the following parameters: Equilibrium: dm/dt: 0.01%/min. (for min: 10 min and max: 180 min). Drying: 0% RH for 120 min RH (%) measurement step: 10%; RH (%) measurement step scope: 0-90-0%

NB-1 cells = assay: Neuroblastoma cellular assay; assay type: cell-based; settings: various concentrations
Text: as §2

[4] = time point 2 h, individual mice, PO, QD, 10 or 50 mg/kg, 2,2,2-trifluoroacetate
[5] = time point 24 h, individual mice, PO, QD, 10 or 50 mg/kg, 2,2,2-trifluoroacetate
[6] = female, CD-1 nude, mouse, in vivo, po, 10 mg/kg
[7] = time point 2 h, individual mice, PO, QD, 10 or 50 mg/kg, listed as A
[8] = time point 24 h, individual mice, PO, QD, 10 or 50 mg/kg, listed as A
[9] = female, CD-1 nude, mouse, oral, read-out: Calc. Conc.
[10] = female, CD-1 nude, mouse, oral, read-out: Calc. Conc. (ng/mL)
[11] = time point 2 h, individual mice, PO, QD, 10 or 50 mg/kg, listed as C, methanesulfonate
[12] = time point <24, individual mouse

SMILES: Cc1nc(-c2nc(-c3ccc(OC(F)(F)F)cc3)no2)nn1Cc1cccc(N2CCC(S(C)(=O)=O)CC2)c1.O=C(O)C(F)(F)F [5-(5-methyl-1-(3-(4-(methylsulfonyl)piperidin-1-yl)benzyl)-1H-1,2,4-triazol-3-yl)-3-(4-(trifluoromethoxy)phenyl)-1,2,4-oxadiazole 2,2,2-trifluoroacetate]
- plasma concentrations compared with the free base ([1]; CD-1 mice, PO): significantly higher

SMILES: Cc1nc(-c2nc(-c3ccc(OC(F)(F)F)cc3)no2)nn1Cc1cccc(N2CCC(S(C)(=O)=O)CC2)c1.Cl [5-(5-methyl-1-(3-(4-(methylsulfonyl)piperidin-1-yl)benzyl)-1H-1,2,4-triazol-3-yl)-3-(4-(trifluoromethoxy)phenyl)-1,2,4-oxadiazole hydrochloride]
- plasma concentrations compared with the free base ([1]; mouse, in vivo, po): significantly higher

SMILES: Cc1nc(-c2nc(-c3ccc(OC(F)(F)F)cc3)no2)nn1Cc1cccc(N2CCC(S(C)(=O)=O)CC2)c1 [B, 5-(5-methyl-1-(3-(4-(methylsulfonyl)piperidin-1-yl)benzyl)-1H-1,2,4-triazol-3-yl)-3-(4-(trifluoromethoxy)phenyl)-1,2,4-oxadiazole 2,2,2-trifluoroacetate]
- concentration at 24 h ([2]; time point 2 h, PO, QD, 10 or 50 mg/kg, 2,2,2-trifluoroacetate): 834.8 nM
- Calc. Conc. (nM) [2, 4]: 1131.9 nM and 748.0 nM and 793.6 nM and 632.1 nM and 868.2 nM
- Calc. Conc. (ng/mL) [2, 4]: 636.4 ng/mL and 420.5 ng/mL and 446.2 ng/mL and 355.4 ng/mL and 488.1 ng/mL
- concentration at 24 h ([2]; time point 24 h, PO, QD, 10 or 50 mg/kg, 2,2,2-trifluoroacetate): 776.4 nM
- Calc. Conc. (nM) [2, 5]: 1426.5 nM and 220.7 nM and 1116.1 nM and 490.3 nM and 628.2 nM
- Calc. Conc. (ng/mL) [2, 5]: 802.0 ng/mL and 124.1 ng/mL and 627.5 ng/mL and 275.6 ng/mL and 353.2 ng/mL

SMILES: Cc1nc(-c2nc(-c3ccc(OC(F)(F)F)cc3)no2)nn1Cc1cccc(N2CCC(S(C)(=O)=O)CC2)c1.O=S(=O)(O)c1ccccc1 [BESYLATE SALT, 1-(3-((5-methyl-3-(3-(4-(trifluoromethoxy)phenyl)-1,2,4-oxadiazol-5-yl)-1H-1,2,4-triazol-1-yl)methyl)phenyl)-4-(methylsulfonyl)piperidin-1-ium benzenesulfonate]
- oral bioavailability in comparison to the free base ([1]; mouse, in vivo, po): improved oral bioavailability
- plasma concentrations compared with the free base ([1]; mouse, in vivo, po): significantly higher

SMILES: Cc1nc(-c2nc(-c3ccc(OC(F)(F)F)cc3)no2)nn1Cc1cccc(N2CCC(S(C)(=O)=O)CC2)c1 [Example 80, 4-Methanesulfonyl-1-{3-[(5-methyl-3-{3-[4-(trifluoromethoxy)phenyl]-1,2,4-oxadiazol-5-yl}-1H-1,2,4-triazol-1-yl)methyl]phenyl}piperidine]
- cell death in Gli56 cells (Gli56 cells): cell death readily apparent
- number of viable Gli56 cells (Gli56 cells; FIG. 3): reduced number of viable cells; also recorded: cell numbers are significantly reduced
- AUCINF [1, 6]: 16.2 µM·h
- AUClast [1, 6]: 12.1 µM·h
- Cmax [1, 6]: 959 nM
- Terminal t1/2 [1, 6]: 12.4 h
- Concentration Mean ([1]; female, CD-1 nude, mouse, in vivo, po, 10 mg/kg, 0.083 hr): 28.9 nM
- Concentration Mean ([1]; female, CD-1 nude, mouse, in vivo, po, 10 mg/kg, 0.25 hr): 280 nM
- Concentration Mean ([1]; female, CD-1 nude, mouse, in vivo, po, 10 mg/kg, 0.5 hr): 440 nM
- disease burden measured by IVIS imaging (OCI-AML3 cells; FIG. 7): reduces disease burden
- survival (OCI-AML3 cells; relative to vehicle, FIG. 8, 10 mg/kg): extends survival; also recorded: significantly increased their survival
- number/percent of viable TMD8 cells (TMD8 cells): reduced number of viable cells; also recorded: respond robustly
- IC50 (293T-HRE-GFP-luc cells): < 0.1 µM
- growth of NB-1 xenografts (tumor growth) (NB-1 xenografts): reduces the tumor growth
- number of viable D423 cells (D423 cells): reduced number of viable cells; also recorded: cell numbers are significantly reduced
- number of viable OCI-AML3 cells (OCI-AML3 cell line): reduced number of viable cells
- DVS Sorption (%) [3]: 0.16%
- concentration at 24 h ([2]; female, CD-1 nude, mouse, oral, time point 24 h, PO, QD, 10 or 50 mg/kg): 414 nM
- concentration at 24 h ([2]; time point 2 h, PO, QD, 10 or 50 mg/kg, listed as A): 561.2 nM
- Calc. Conc. (nM) [2, 7]: 591.7 nM and 510.0 nM and 285.4 nM and 657.3 nM and 761.7 nM
- Calc. Conc. (ng/mL) [2, 7]: 332.7 ng/mL and 286.7 ng/mL and 160.4 ng/mL and 369.5 ng/mL and 428.2 ng/mL
- Calc. Conc. (nM) [2, 8]: 987.2 nM and 307.2 nM and 342.7 nM and 233.3 nM and 201.3 nM
- Calc. Conc. (ng/mL) [2, 8]: 555.0 ng/mL and 172.7 ng/mL and 192.7 ng/mL and 131.2 ng/mL and 113.1 ng/mL
- cell death in NB-1 cells (NB-1 cells): cell death readily apparent
- number of viable NB-1 cells (NB-1 cells; FIG. 2): reduced number of viable cells; also recorded: cell numbers are significantly reduced

SMILES: Cc1nc(-c2nc(-c3ccc(OC(F)(F)F)cc3)no2)nn1Cc1cccc(N2CCC(S(C)(=O)=O)CC2)c1 [HYDROCHLORIDE SALT, 5-(5-methyl-1-(3-(4-(methylsulfonyl)piperidin-1-yl)benzyl)-1H-1,2,4-triazol-3-yl)-3-(4-(trifluoromethoxy)phenyl)-1,2,4-oxadiazole hydrochloride]
- oral bioavailability in comparison to the free base ([1]; mouse, in vivo, po): improved oral bioavailability
- form transformation after DVS test [3]: No form transformation was observed
- hygroscopicity classification [3]: slightly hygroscopic
- DVS Sorption (%) ([3]; listed as HCl, hydrochloride): 1.59%
- DVS Sorption (%) ([3]; listed as hydrochloride candidate, hydrochloride): 1.59%

SMILES: CS(=O)(=O)O.Cc1nc(-c2nc(-c3ccc(OC(F)(F)F)cc3)no2)nn1Cc1cccc(N2CCC(S(C)(=O)=O)CC2)c1 [MESYLATE SALT, 1-(3-((5-methyl-3-(3-(4-(trifluoromethoxy)phenyl)-1,2,4-oxadiazol-5-yl)-1H-1,2,4-triazol-1-yl)methyl)phenyl)-4-(methylsulfonyl)piperidin-1-ium methanesulfonate]
- oral bioavailability in comparison to the free base ([1]; mouse, in vivo, po): improved oral bioavailability
- plasma concentrations compared with the free base ([1]; mouse, in vivo, po): significantly higher
- form transformation after DVS test [3]: No form transformation was observed
- hygroscopicity classification [3]: hygroscopic
- DVS Sorption (%) [3]: 2.47%
- concentration at 6 h [2, 9]: 2950 nM
- concentration at 6 h [2, 10]: 1660 ng/mL
- concentration at 8 h [2, 9]: 2910 nM
- concentration at 8 h [2, 10]: 1640 ng/mL
- concentration at 24 h ([2]; time point 2 h, PO, QD, 10 or 50 mg/kg): 2249.9 nM
- Calc. Conc. (nM) [2, 11]: 2676.0 nM and 1457.7 nM and 2725.3 nM and 2248.5 nM and 2141.9 nM
- Calc. Conc. (ng/mL) [2, 11]: 1504.5 ng/mL and 819.5 ng/mL and 1532.2 ng/mL and 1264.1 ng/mL and 1204.2 ng/mL
- Calc. Conc. (nM) [2, 12]: 1469.8 nM
- Calc. Conc. (ng/mL) [2, 12]: 826.3 ng/mL
